Results taken from patent publication US9315475B2 (MERCK SHARP & DOHME CORP., priority 2011, dated 2016).
pIC50: −log10 of the molar value.

Target: T1, wildtype HIV-1 protease (Human immunodeficiency virus type 1 group M subtype B, UniProt P04585)
T1 construct: the wildtype HIV-1 protease (which was expressed in Escherichia coli); made in house; host or cells: Escherichia coli
Assay: Assay for inhibition of microbial expressed HIV protease (Pepcleav)
Assay type: biochemical
Conditions: wild type HIV-1 protease expressed in E. coli, peptide substrate, pH 5.5; mean of at least two independent experiments; read-out: Pepcleav
Method in brief: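 E. coli-expressed wild-type HIV-1 protease (20 pM) preincubated 30 min at room temperature with inhibitor in pH 5.5 sodium acetate/NaCl/BSA buffer, then 400 μM Val-Ser-Gln-Asn-(βnaphthyl)Ala-Pro-Ile-Val added for 1 h at 30 °C. Quenched with formic acid; product quantified by LC-MS/MS peak area, indinavir internal standard.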

Point of comparison: COC(=O)N[C@H](C(=O)Nc1cnccc1CC[C@@H]1CN[C@H](COC(=O)NCc2ccc(F)cc2)CO1)C(c1ccccc1)c1ccccc1 [Example 33, N-(4-{2-[(2R,5S)-5-({[(4-fluorobenzyl)carbamoyl]oxy}methyl)morpholin-2-yl]ethyl}pyridin-3-yl)-Nα-(methoxycarbonyl)-β-phenyl-L-phenylalaninamide], pIC50 8.24. Against it:
- COC(=O)N[C@H](C(=O)Nc1ccccc1CC[C@@H]1CN[C@H](CNS(=O)(=O)Cc2ccccc2)CO1)C(c1ccccc1)c1ccccc1 [Example 50, N-(2-{2-[(2R,5R)-5-{[(benzylsulfonyl)amino]methyl}morpholin-2-yl]ethyl}phenyl)-Nα-(methoxycarbonyl)-β-phenyl-L-phenylalaninamide] — 0.93 log units lower, 7.31
- COC(=O)N[C@H](C(=O)Nc1cncnc1CC[C@@H]1CN[C@H](COC(=O)NCc2ccc(F)cc2)CO1)C(c1ccccc1)c1ccccc1 [Example 36, N-(4-{2-[(2R,5S)-5-({[(4-fluorobenzyl)carbamoyl]oxy}methyl)morpholin-2-yl]ethyl}pyrimidin-5-yl)-Nα-(methoxycarbonyl)-β-phenyl-L-phenylalaninamide] — 0.62 log units lower, 7.62
- COC(=O)N[C@H](C(=O)Nc1ccccc1CC[C@@H]1CN[C@H](COC(=O)NCc2ccc(F)cc2)CO1)C(c1ccccc1)c1ccccc1 [Example 16, methyl N-[(1S)-1-benzhydryl-2-[[2-[2-[(2R,5S)-5-[(4-fluorophenyl)methylcarbamoyloxymethyl]morpholin-2-yl]ethyl]phenyl]amino]-2-oxo-ethyl]carbamate] — within 0.2 log units, 8.23
- COC(=O)N[C@H](C(=O)Nc1ccccc1CC[C@@H]1CN[C@H](CSc2ccccc2)CO1)C(c1ccccc1)c1ccccc1 [Example 62, Nα-(methoxycarbonyl)-β-phenyl-N-[2-(2-{(2R,5S)-5-[(phenylsulfanyl)methyl]morpholin-2-yl}ethyl)phenyl]-L-phenylalaninamide] — 1.35 log units lower, 6.89
- COC(=O)N[C@H](C(=O)Nc1ccccc1CC[C@@H]1CN[C@H](C(N)=O)CO1)C(c1ccccc1)c1ccccc1 [Example 11, methyl [(1S)-2-[(2-{2-[(2R,5S)-5-(aminocarbonyl)morpholin-2-yl]ethyl}phenyl)amino]-1-(diphenylmethyl)-2-oxoethyl]carbamate] — 1.14 log units lower, 7.10
- COC(=O)N[C@H](C(=O)Nc1ccccc1CC[C@@H]1CN[C@H](Cn2cc([Si](C)(C)C)nn2)CO1)C(c1ccccc1)c1ccccc1 [Example 65, Nα-(methoxycarbonyl)-β-phenyl-N-(2-{2-[(2R,5R)-5-{[4-(trimethylsilyl)-1H-1,2,3-triazol-1-yl]methyl}morpholin-2-yl]ethyl}phenyl)-L-phenylalaninamide] — 0.87 log units lower, 7.37
- COC(=O)N[C@H](C(=O)Nc1c(CC[C@@H]2CN[C@H](COC(=O)NCC(F)(F)F)CO2)ccnc1OC)C(c1ccccc1)c1ccccc1 [Example 35, Nα-(methoxycarbonyl)-N-(2-methoxy-4-{2-[(2R,5S)-5-({[(2,2,2-trifluoroethyl)carbamoyl]oxy}methyl)morpholin-2-yl]ethyl}pyridin-3-yl)-β-phenyl-L-phenylalaninamide] — 1.02 log units lower, 7.22
- O=C(C[C@H](c1ccccc1)c1ccncc1)Nc1cccc(F)c1CC[C@@H]1CN[C@H](COC(=O)NCC(F)(F)F)CO1 [Example 162, {(3S,6R)-6-[2-(2-fluoro-6-{[(3R)-3-phenyl-3-pyridin-4-ylpropanoyl]amino}phenyl)ethyl]morpholin-3-yl}methyl (2,2,2-trifluoroethyl)carbamate] — 1.95 log units lower, 6.29
- COC(=O)N[C@H](C(=O)Nc1ccccc1CC[C@@H]1CN[C@H](COC(=O)N[C@H]2COC[C@@H]2F)CO1)C(c1ccccc1)c1ccccc1 [Example 29, N-[2-(2-{(2R,5S)-5-[({[(3S,4R)-4-fluorotetrahydrofuran-3-yl]carbamoyl}oxy)methyl]morpholin-2-yl}ethyl)phenyl]-Nα-(methoxycarbonyl)-β-phenyl-L-phenylalaninamide] — 0.50 log units lower, 7.74
- COC(=O)N[C@H](C(=O)Nc1cccc(F)c1CC[C@@H]1CN[C@H](COC(=O)NCC(F)(F)F)CO1)[C@@H](c1ccc(Cl)c(F)c1)C1CCOCC1 [Example 129, (βR)-4-Chloro-3-fluoro-N-(3-fluoro-2-{2-[(2R,5S)-5-({[(2,2,2-trifluoroethyl)carbamoyl]oxy}methyl)morpholin-2-yl]ethyl}phenyl)-Nα-(methoxycarbonyl)-β-(tetrahydro-2H-pyran-4-yl)-L-phenylalaninamide] — within 0.2 log units, 8.07
- COC(=O)N[C@H](C(=O)Nc1c(CC[C@@H]2CN[C@H](COC(=O)NCC(F)(F)F)CO2)cc[nH]c1=O)C(c1ccccc1)c1ccccc1 [Example 39, Nα-(methoxycarbonyl)-N-(2-oxo-4-{2-[(2R,5S)-5-({[(2,2,2-trifluoroethyl)carbamoyl]oxy}methyl)morpholin-2-yl]ethyl}-1,2-dihydropyridin-3-yl)-β-phenyl-L-phenylalaninamide] — 0.40 log units higher, 8.64
- COC(=O)N[C@H](C(=O)Nc1ccccc1CC[C@@H]1CN[C@H](COC(=O)NCC2CC2)CO1)C(c1ccccc1)c1ccccc1 [Example 22, methyl N-[(1S)-1-benzhydryl-2-[[2-[2-[(2R,5S)-5-(cyclopropylmethylcarbamoyloxymethyl)morpholin-2-yl]ethyl]phenyl]amino]-2-oxo-ethyl]carbamate] — 1.00 log units lower, 7.24
- COC(=O)N[C@H](C(=O)Nc1ccccc1CC[C@@H]1CO[C@H](CCc2ccccc2NC(=O)[C@@H](NC(=O)OC)C(c2ccccc2)c2ccccc2)CN1)C(c1ccccc1)c1ccccc1 [Example 68, dimethyl [(2R,5R)-morpholine-2,5-diylbis {ethane-2,1-diylbenzene-2,1-diylimino[(2S)-1-oxo-3,3-diphenylpropane-1,2-diyl]}]biscarbamate] — 2.28 log units higher, 10.52
- COC(=O)N[C@H](C(=O)Nc1ccccc1CC[C@@H]1CN[C@H](COC(=O)NCC(F)F)CO1)C(c1ccccc1)c1ccccc1 [Example 24, methyl N-[(1S)-1-benzhydryl-2-[[2-[2-[(2R,5S)-5-(2,2-difluoroethylcarbamoyloxymethyl)morpholin-2-yl]ethyl]phenyl]amino]-2-oxo-ethyl]carbamate] — 1.17 log units lower, 7.07
- COC(=O)N[C@H](C(=O)Nc1cncnc1CC[C@@H]1CN[C@H](COC(=O)NCC(F)(F)F)CO1)C(c1ccccc1)c1ccccc1 [Example 37, Nα-(methoxycarbonyl)-β-phenyl-N-(4-{2-[(2R,5S)-5-({[(2,2,2-trifluoroethyl)carbamoyl]oxy}methyl)morpholin-2-yl]ethyl}pyrimidin-5-yl)-L-phenylalaninamide] — 1.50 log units lower, 6.74
- N[C@H](C(=O)Nc1c(F)cccc1OC[C@@H]1CN[C@H](COC(=O)NCC(F)(F)F)CO1)C(c1ccc(F)cc1)c1ccc(F)cc1 [Example 200, 4-fluoro-β-(4-fluorophenyl)-N-(2-fluoro-6-{[(2S,5S)-5-({[(2,2,2-trifluoroethyl)carbamoyl]oxy}methyl)morpholin-2-yl]methoxy}phenyl)-L-phenylalaninamide] — 0.73 log units lower, 7.51
- COC(=O)NCC(=O)Nc1ccccc1CC[C@@H]1CO[C@H](CCc2ccccc2NC(=O)[C@@H](NC(=O)OC)C(c2ccccc2)c2ccccc2)CN1 [Example 69, methyl N-[(1S)-1-benzhydryl-2-[[2-[2-[(2R,5R)-5-[2-[2-[[2-(methoxycarbonylamino)acetyl]amino]phenyl]ethyl]morpholin-2-yl]ethyl]phenyl]amino]-2-oxo-ethyl]carbamate] — 0.23 log units higher, 8.47
